Results as given in patent US11040963B2 (priority 2017, dated 2021).

Assays:
[1] = test system: H1N1 A/California/07/09; assay: microbe, parasite or virus in culture; assay type: cell-based, influenza A virus; conditions: for EC50: Influenza A virus, H1N1, MDCK, 96 h, read-out: Virus neutralization assay (VNA), pEC50 H1N1 A/California/07/09 (converted)
[2] = in vitro; conditions: dog, Cytotoxicity (pCC50) MDCK
[3] = test system: H1N1 A/New Caledonia/20/99; assay: microbe, parasite or virus in culture; assay type: cell-based, influenza A virus; conditions: for EC50: Influenza A virus, H1N1, MDCK, 96 h, read-out: Virus neutralization assay (VNA), pEC50 H1N1 A/New Caledonia/20/99 (converted)
[4] = biological target: HA H1 A/New Caledonia/20/99 (Influenza A virus (A/New Caledonia/20/1999(H1N1)), UniProt Q6WG00); assay: biochemical; conditions: Competition binding (AlphaLISA), pIC50 H1 A/New Caledonia/20/99
[5] = test system: H5N1 A/Vietnam/1203/04; assay: microbe, parasite or virus in culture; assay type: cell-based, influenza A virus; conditions: 96 h, average of repeats; for EC50: Influenza A virus, H5N1, MDCK, read-out: Virus neutralization assay (VNA), pEC50 H5N1 A/Vietnam/1203/04, MDCK cells, 96 h, CPE by ATPlite (converted)
[6] = biological target: HA H5 A/Vietnam/1203/04 (Influenza A virus (A/Vietnam/1203/2004(H5N1)), UniProt Q5EP31); assay: biochemical; conditions: Competition binding (AlphaLISA), pIC50 H5 A/Vietnam/1203/04
[7] = biological target: HA H1 A/California/07/09 (Influenza A virus (A/California/07/2009(H1N1)), UniProt C3W5X2); assay: biochemical; conditions: Competition binding (AlphaLISA), pIC50 H1 A/California/07/09

Compound	EC50 [1] [nM]	CC50 [2] [nM]	EC50 [3] [nM]	IC50 [4] [nM]	EC50 [5] [nM]	IC50 [6] [nM]	IC50 [7] [nM]	Virus neutralization assay (VNA), pEC50 H1N1 A/California/07/09 [1]	Virus neutralization assay (VNA), pEC50 H1N1 A/New Caledonia/20/99 [3]	Virus neutralization assay (VNA), pEC50 H5N1 A/Vietnam/1203/04 ([5]; MDCK cells, CPE by ATPlite)
COC(=O)C(c1ccccn1)C1CCN(C(=O)c2cccc(-c3nc4ccc(OC)cc4s3)c2)CC1 (centres unmarked) [Example 66]	1000	20000	501	63.1	12600	794	100			
COC(=O)[C@@H](c1ccccc1)N1CCN(C(=O)c2cccc(-c3nc4cc(C(F)(F)F)ccc4o3)c2)[C@H](CC(N)=O)C1 [Example 67]	794	39800	631	50.1	31600	3160	50.1			
COC(=O)C(c1cccnc1)N1CCN(C(=O)c2cccc(-c3nc4ccc(OC)cc4s3)c2)CC1 (centres unmarked) [Example 68]	2000	10000	501	100	20000	1260	200			
[2H]C([2H])([2H])c1nnc(C(c2ccccc2)N2CCN(C(=O)c3cccc(-c4nc5cc(C(F)(F)F)ccc5o4)c3)CC2)o1 (centres unmarked) [Example 70]	501	> 50100	631	158	> 50100	3980	158			
COc1ccc2nc(-c3cccc(C(=O)N4CCN(C(c5ccccc5)c5nnc(C)o5)CC4)c3)sc2c1 (centres unmarked) [Example 71]	794	> 50100	631	100	7940	1000	100			
COc1ccc2nc(-c3cccc(C(=O)N4CCN(C(c5ccccc5)c5nnn(C)n5)CC4)c3)sc2c1 (centres unmarked) [Example 72]	794	50100	631	126	39800	1580	200			
Cc1nnc(C(c2ccccc2)N2CCN(C(=O)c3cccc(-c4nc5cc(NS(C)(=O)=O)ccc5o4)c3)CC2)o1 (centres unmarked) [Example 73]	794	> 50100	794	25.1	> 50100	1260	15.8			
COc1ccc2nc(-c3cccc(C(=O)N4CCN(C(c5ccccc5)c5ncco5)CC4)c3)sc2c1 (centres unmarked) [Example 74]	1000	> 50100	631	79.4	6310	2000	200			
NCc1nnc(C(c2ccccc2)N2CCN(C(=O)c3cccc(-c4nc5cc(C(F)(F)F)ccc5o4)c3)CC2)o1 (centres unmarked) [Example 75]	1000	10000	631	158	7940	3980	200			
Cc1nnc([C@@H](c2ccccc2)N2CCN(C(=O)c3cccc(-c4cnc5ccccc5c4)c3)CC2)o1 [Example 76]	1260	15800	631	158	31600	10000	200			
Cc1nnc([C@@H](c2ccccc2)N2CCN(C(=O)c3cccc(-c4nc5cccc(C)c5o4)c3)CC2)o1 [Example 77]	1260	3980	631	200	> 50100	10000	251			
COC(=O)C(c1ccccc1)N1CCN(C(=O)c2cccc(-c3nc4ccc(OC)cc4s3)n2)CC1 (centres unmarked) [Example 78]	1260	> 50100	631	316	50100	25100	631			
COc1ccc2nc(-c3cccc(C(=O)N4CCN(C(c5ccccc5)c5nnco5)CC4)c3)sc2c1 (centres unmarked) [Example 79]	1580	> 50100	631	79.4	12600	1260	200			
COC(=O)C(c1ccccc1)N1CCN(C(=O)c2ccc(-c3nc4ccc(OC)cc4s3)o2)CC1 (centres unmarked) [Example 80]	1580	> 50100	631	251	> 50100	1000	316			
COC(=O)C(c1ccccc1)N1CCN(C(=O)c2cccc(NC(=O)c3ccc(OC)cc3)c2)CC1 (centres unmarked) [Example 81]	2000	> 50100	631	126	10000	1260	200			
COc1ccc2nc(-c3cccc(C(=O)N4CCN(C(CO)c5ccccc5)CC4)c3)sc2c1 (centres unmarked) [Example 82]	2000	5010	631	126	12600	1000	200			
COc1ccc2nc(-c3cccc(C(=O)N4CCN(C(C(N)=O)c5ccccc5)CC4)c3)sc2c1 (centres unmarked) [Example 84]	2510	> 50100	631	200	31600	1580	316			
Cc1nnc(C(c2ccccc2)N2CCN(C(=O)c3cccc(-c4nc5cc(C(F)(F)F)ccc5o4)c3)CC2)o1 (centres unmarked) [Example 86]	631	31600	794	126	31600	3160	79.4			
O=C(c1cccc(-c2nc3cc(C(F)(F)F)ccc3o2)c1)N1CCN(C(c2ccccc2)c2nnc(C3(O)CNC3)o2)CC1 (centres unmarked) [Example 87]	398	> 50100	501	39.8	39800	2510	63.1			
COC(=O)C(c1ccccc1)N1C[C@H]2CC[C@@H](C1)N2C(=O)c1cccc(-c2nc3ccc(OC)cc3s2)c1 (some centres unmarked) [Example 88]	1000	> 50100	794	126	12600	501	200			
COC(=O)C(c1ccccc1)N1CCN(C(=O)c2cccc(-c3ncc(C(=O)N4CCOCC4)s3)c2)CC1 (centres unmarked) [Example 89]	1260	> 50100	794	79.4	15800	1260	79.4			
COc1ccc2nc(-c3cccc(C(=O)N4CCN(C(C(C)=O)c5ccccc5)CC4)c3)sc2c1 (centres unmarked) [Example 90]		31600		158		1000	316	5.8	6.1	<4.3
COc1ccc2nc(-c3cccc(C(=O)N4CCN(C(c5ccccc5)c5ccc[nH]c5=O)CC4)c3)sc2c1 (centres unmarked) [Example 91]	1580	39800	794	316	> 50100	2510	501			
